Results: patent EP0107890B1, “Mammalian PGRF” (THE SALK INSTITUTE FOR BIOLOGICAL STUDIES, priority 1982, dated 1986)
Where no end group is shown, it is not given here.

Assays:
pituitary cells = experiment: in vitro growth hormone release assay in rat pituitary cell cultures (immunoreactive GH by radioimmunoassay); assay type: cell-based
Experimental: To determine the effectiveness of the peptides to promote the release of growth hormone, in vitro assays are carried out using synthetic PGRF(1-40) of Example II in side-by-side comparison with equimolar concentrations of the extracted and purified native PGRF (1-40) and of a GRF Reference Standard having a known effectiveness to promote the release of growth hormone from pituitary cells. The GRF Reference standard is described and defined in Brazeau, et al., Endocrinology, Vol. 110, A538(1982) and is an amount of a preparation of rat hypothalamic origin that produces a half-maximal response in terms of GH release in a pituitary cell monolayer bioassay. Cultures are used which include cells of rat pituitary glands removed some four to five days previously. Both cultures of a defined standard medium and cultures which are considered optimal for the secretion of growth hormone are used for the comparative testing, in the general manner described in Brazeau, et al. Regulatory Peptides, 1, 255, 1981. Incubation with the substance to be tested is carried out for 3 to 4 hours, and aliquots of the culture medium are removed and processed to measure their contents in immunoreactive GH(ir GH) by a well-characterized radioimmunoassay.

normal male rats = experiment: in vivo secretion of pituitary growth hormone after injection into anesthetized rats; settings: injected into rats
Excerpt: In addition to the in vitro tests for secretion of growth hormone, in vivo experiments were also run by injecting the synthetic peptide into normal male rats about 200 g. body weight, anesthetized with pentobarbital.

PGRF(1-40) (YADAIFTNSYRKVLGQLSARKLLQDIMSRQQGESNQERGA-OH; UniProt P01286 32-71, looked up, fragment) [Example II]
ED50 (pituitary cells; GH release from rat pituitary cell cultures, incubation 3 to 4 hours): about 113 picograms
biological activity compared with the native peptide (pituitary cells; in equimolar ratios, versus extracted and purified native PGRF (1-40)): full biological activity of the native peptide
GH-releasing activity in vivo (normal male rats): powerful stimulator of the secretion of pituitary growth hormone
